System: B16 murine melanocyte cell line
Experiment: Production of melanin by B16 murine melanocyte cell line
Type: cell-based
Conditions: B16 melanocytes, 72 hours; Kojic acid at 400 μg/mL
Protocol: In order to evaluate the potential beneficial effect of ingredients towards skin de- or pro-pigmentation we used 2D culture of murine melanocytes (B16) and we performed 2 tests: 1—assessment of melanin production and 2—assessment of tyrosinase production.
1. The Cell Culture Conditions. • B16 cells were cultured in DMEM 1 g/L glucose without phenol red supplemented with 10% foetal calf serum, in a humidified chamber at 37° C. and containing 5% CO2.
2. The Production of Melanin by B16 Murine Melanocyte Cell Line. • Cells were incubated with the selected ingredients or the test references (Kojic acid at 400 μg/mL) for 72 hours, in the presence or absence of NDP-MSH an analog of MSH. The total quantity of melanin (extracellular and intracellular) was evaluated by measurement of the optical density at 405 nm of each sample against melanin standards in presence or in absence of NDP-MSH.
Caftaric acid has been pre-treated with La-1 [(spray dried culture Lactobacillus Johnsonii CNCM I-1225, 1.19E10 cfu/g) for 24 hours in a thermomixer at 40° C., under shaking conditions. After incubation, samples have been centrifuged 5 minutes at 3000 g. After this treatment the probiotic as such is not present anymore in the sample however the presence of its metabolites can't be excluded.

O=c1cc(CO)occ1O [Kojic acid]
melanin production (in words): decrease in melanin production

Reference: patent US9492416B2, “Use of caftaric acid and lactic bacterium in food supplement for regulating skin pigmentation” (Nestec S.A., priority 2010, dated 2016)
